Calls of active or inactive are those of the source. The rule behind the calls is not given here.
Key:
Rattus norvegicus [1] = assay: Anticonvulsant activity in Sprague-Dawley albino rat assessed as protection against subcutaneous pentylenetetrazole-induced seizures at 50 mg/kg, po after 0.25 hrs; format: functional, organism-based; set-up: dose 50 mg/kg
Rattus norvegicus [2] = assay: Neurotoxicity in Sprague-Dawley albino rat assessed as motor impairment at 30 mg/kg, po after 4 hrs by rotarod test; format: toxicity, organism-based; set-up: dose 30 mg/kg, route oral; conditions: in vivo
Rattus norvegicus [3] = assay: Neurotoxicity in Sprague-Dawley albino rat assessed as motor impairment at 30 mg/kg, po after 2 hrs by rotarod test; format: toxicity, organism-based; set-up: dose 30 mg/kg, route oral; conditions: in vivo
Rattus norvegicus [4] = assay: Neurotoxicity in Sprague-Dawley albino rat assessed as motor impairment at 30 mg/kg, po after 1 hrs by rotarod test; format: toxicity, organism-based; set-up: dose 30 mg/kg, route oral; conditions: in vivo
Rattus norvegicus [5] = assay: Neurotoxicity in Sprague-Dawley albino rat assessed as motor impairment at 30 mg/kg, po after 0.5 hrs by rotarod test; format: toxicity, organism-based; set-up: dose 30 mg/kg, route oral; conditions: in vivo
Rattus norvegicus [6] = assay: Neurotoxicity in Sprague-Dawley albino rat assessed as motor impairment at 30 mg/kg, po after 0.25 hrs by rotarod test; format: toxicity, organism-based; set-up: dose 30 mg/kg, route oral; conditions: in vivo
Rattus norvegicus [7] = assay: Anticonvulsant activity in Sprague-Dawley albino rat assessed as protection against maximal electroshock-induced seizures at 30 mg/kg, po after 4 hrs; format: functional, organism-based; set-up: dose 30 mg/kg
Rattus norvegicus [8] = assay: Anticonvulsant activity in Sprague-Dawley albino rat assessed as protection against maximal electroshock-induced seizures at 30 mg/kg, po after 2 hrs; format: functional, organism-based; set-up: dose 30 mg/kg
Rattus norvegicus [9] = assay: Anticonvulsant activity in Sprague-Dawley albino rat assessed as protection against maximal electroshock-induced seizures at 30 mg/kg, po after 1 hrs; format: functional, organism-based; set-up: dose 30 mg/kg
Rattus norvegicus [10] = assay: Anticonvulsant activity in Sprague-Dawley albino rat assessed as protection against maximal electroshock-induced seizures at 30 mg/kg, po after 0.5 hrs; format: functional, organism-based; set-up: dose 30 mg/kg
Rattus norvegicus [11] = assay: Anticonvulsant activity in Sprague-Dawley albino rat assessed as protection against maximal electroshock-induced seizures at 30 mg/kg, po after 0.25 hrs; format: functional, organism-based; set-up: dose 30 mg/kg
Mus musculus [12] = assay: Anticonvulsant activity in CF1 albino mouse assessed as protection against electrically-induced seizure at 100 mg/kg, ip after 2 hrs by 6Hz psychomotor seizure test; format: functional, organism-based; set-up: dose 100 mg/kg
Mus musculus [13] = assay: Anticonvulsant activity in CF1 albino mouse assessed as protection against electrically-induced seizure at 100 mg/kg, ip after 1 hrs by 6Hz psychomotor seizure test; format: functional, organism-based; set-up: dose 100 mg/kg
Mus musculus [14] = assay: Anticonvulsant activity in CF1 albino mouse assessed as protection against electrically-induced seizure at 100 mg/kg, ip after 0.5 hrs by 6Hz psychomotor seizure test; format: functional, organism-based; set-up: dose 100 mg/kg
Rattus norvegicus [15] = species on record: Rattus norvegicus; assay: Protective index, ratio of TD50 for neurotoxicity in Sprague-Dawley albino rat to ED50 for inhibition of maximal electroshock-induced seizures in Sprague-Dawley albino rat; format: functional
[16] = Neurotoxicity in oral dosed Sprague-Dawley albino rat assessed as motor impairment by rotarod test; format: toxicity, organism-based; conditions: in vivo
Rattus norvegicus [17] = assay: Anticonvulsant activity in po dosed Sprague-Dawley albino rat assessed as protection against subcutaneous pentylenetetrazole-induced seizures; format: functional
Rattus norvegicus [18] = assay: Anticonvulsant activity in po dosed Sprague-Dawley albino rat assessed as protection against maximal electroshock-induced seizures; format: functional
Rattus norvegicus [19] = assay: Anticonvulsant activity in po dosed Sprague-Dawley albino rat assessed as time to peak effect; format: functional
Rattus norvegicus [20] = assay: Neurotoxicity in Sprague-Dawley albino rat assessed as motor impairment at 50 mg/kg, po after 4 hrs by rotarod test; format: toxicity, organism-based; set-up: dose 50 mg/kg, route oral; conditions: in vivo
Rattus norvegicus [21] = assay: Neurotoxicity in Sprague-Dawley albino rat assessed as motor impairment at 50 mg/kg, po after 2 hrs by rotarod test; format: toxicity, organism-based; set-up: dose 50 mg/kg, route oral; conditions: in vivo
Rattus norvegicus [22] = assay: Neurotoxicity in Sprague-Dawley albino rat assessed as motor impairment at 50 mg/kg, po after 1 hrs by rotarod test; format: toxicity, organism-based; set-up: dose 50 mg/kg, route oral; conditions: in vivo
Rattus norvegicus [23] = assay: Neurotoxicity in Sprague-Dawley albino rat assessed as motor impairment at 50 mg/kg, po after 0.5 hrs by rotarod test; format: toxicity, organism-based; set-up: dose 50 mg/kg, route oral; conditions: in vivo
Rattus norvegicus [24] = assay: Neurotoxicity in Sprague-Dawley albino rat assessed as motor impairment at 50 mg/kg, po after 0.25 hrs by rotarod test; format: toxicity, organism-based; set-up: dose 50 mg/kg, route oral; conditions: in vivo
Mus musculus [25] = assay: Neurotoxicity in CF1 albino mouse assessed as loss of rotard grasping at 300 mg/kg, ip after 0.5 hrs by rotarod test; format: toxicity, organism-based; set-up: dose 300 mg/kg, route intraperitoneal; conditions: in vivo
Mus musculus [26] = assay: Anticonvulsant activity in ip dosed CF1 albino mouse assessed as protection against subcutaneous pentylenetetrazole-induced seizures after 4 hrs; format: functional; conditions: read-out: MED
Mus musculus [27] = assay: Anticonvulsant activity in ip dosed CF1 albino mouse assessed as protection against subcutaneous pentylenetetrazole-induced seizures after 0.5 hrs; format: functional; conditions: read-out: MED
Mus musculus [28] = assay: Anticonvulsant activity in ip dosed CF1 albino mouse assessed as protection against maximal electroshock-induced seizures after 4 hrs; format: functional; conditions: read-out: MED
[29] = Lipophilicity, log P of compound; format: physicochemical; conditions: octanol/water
Mus musculus [30] = assay: Anticonvulsant activity in ip dosed CF1 albino mouse assessed as protection against maximal electroshock-induced seizures after 0.5 hrs; format: functional; conditions: read-out: MED
Mus musculus [31] = assay: Anticonvulsant activity in CF1 albino mouse assessed as time to peak effect at 100 mg/kg, ip; format: functional; conditions: route intraperitoneal
Mus musculus [32] = assay: Anticonvulsant activity in ip dosed CF1 albino mouse assessed as protection against electrically-induced seizure by 6Hz psychomotor seizure test; format: functional
Mus musculus [33] = assay: Neurotoxicity in CF1 albino mouse assessed as loss of rotard grasping at 300 mg/kg, ip after 4 hrs by rotarod test; format: toxicity, organism-based; set-up: dose 300 mg/kg, route intraperitoneal; conditions: in vivo
Rattus norvegicus [34] = species on record: Rattus norvegicus
Description: Protective index, ratio of TD50 for neurotoxicity in Sprague-Dawley albino rat to ED50 for inhibition of subcutaneous pentylenetetrazole-induced seizures in Sprague-Dawley albino rat

Mus musculus [35] = assay: Neurotoxicity in ip dosed CF1 albino mouse assessed as minimum dose required to cause impair in motor coordination after 4 hrs by rotarod test; format: toxicity, organism-based; conditions: in vivo
Mus musculus [36] = assay: Neurotoxicity in ip dosed CF1 albino mouse assessed as minimum dose required to cause impair in motor coordination after 0.5 hrs by rotarod test; format: toxicity, organism-based; conditions: in vivo
Mus musculus [37] = assay: Toxicity in subcutaneous pentylenetetrazole-induced CF1 albino mouse assessed as myoclonic jerks at 300 mg/kg, ip after 0.5 hrs; format: organism-based; set-up: dose 300 mg/kg; conditions: in vivo, sc
Mus musculus [38] = assay: Toxicity in subcutaneous pentylenetetrazole-induced CF1 albino mouse assessed as myoclonic jerks at 100 mg/kg, ip after 4 hrs; format: organism-based; set-up: dose 100 mg/kg; conditions: in vivo, sc
Mus musculus [39] = assay: Neurotoxicity in CF1 albino mouse assessed as tremors at 300 mg/kg, ip after 0.5 hrs by rotarod test; format: toxicity, organism-based; set-up: dose 300 mg/kg, route intraperitoneal; conditions: in vivo

O=C1NC(=O)C(c2ccccc2)(C2CC2)N1 (centres undefined)
Activity (Rattus norvegicus [1]): inactive
Activity (Rattus norvegicus [2]): Non-toxic
Activity (Rattus norvegicus [3]): Non-toxic
Activity (Rattus norvegicus [4]): Non-toxic
Activity (Rattus norvegicus [5]): Non-toxic
Activity (Rattus norvegicus [6]): Non-toxic
Activity (Rattus norvegicus [7]): Active
Activity (Rattus norvegicus [8]): Active
Activity (Rattus norvegicus [9]): Active
Activity (Rattus norvegicus [10]): Active
Activity (Rattus norvegicus [11]): Active
Activity (Mus musculus [12]): Active
Activity (Mus musculus [13]): Active
Activity (Mus musculus [14]): Active
PI (Rattus norvegicus [15]): 13.47
TD50 [16]: 77.6 mg/kg
ED50 (Rattus norvegicus [17]): 57.3 mg/kg
ED50 (Rattus norvegicus [18]): 5.76 mg/kg
Time (Rattus norvegicus [19]): 2 h
Activity (Rattus norvegicus [20]): Non-toxic
Activity (Rattus norvegicus [21]): Non-toxic
Activity (Rattus norvegicus [22]): Non-toxic
Activity (Rattus norvegicus [23]): Non-toxic
Activity (Rattus norvegicus [24]): Non-toxic
Activity (Mus musculus [25]): Toxic
minimal effective dose (Mus musculus [26]): 100 mg/kg
minimal effective dose (Mus musculus [27]): 30 mg/kg
minimal effective dose (Mus musculus [28]): 30 mg/kg
logP [29]: 1.66
minimal effective dose (Mus musculus [30]): 30 mg/kg
Time (Mus musculus [31]): 2 h
ED50 (Mus musculus [32]): 26.1 mg/kg
Activity (Mus musculus [33]): Toxic
PI (Rattus norvegicus [34]): 1.35

O=C1NC(c2ccc(Cl)cc2)(C2CC2)C(=O)N1CN1CCN(CCc2ccccc2)CC1 (centres undefined)
MTC (Mus musculus [35]): 30 mg/kg
MTC (Mus musculus [36]): 30 mg/kg
minimal effective dose (Mus musculus [28]): 300 mg/kg
logP [29]: 3.97
minimal effective dose (Mus musculus [30]): 300 mg/kg
Activity (Mus musculus [37]): Toxic
Activity (Mus musculus [38]): Toxic

CCOC(=O)N1CCN(CN2C(=O)NC(c3ccccc3)(C3CC3)C2=O)CC1 (centres undefined)
Activity (Mus musculus [25]): Toxic
minimal effective dose (Mus musculus [26]): 300 mg/kg
minimal effective dose (Mus musculus [27]): 100 mg/kg
minimal effective dose (Mus musculus [28]): 100 mg/kg
logP [29]: 1.76
minimal effective dose (Mus musculus [30]): 100 mg/kg
Activity (Mus musculus [33]): Toxic
Activity (Mus musculus [39]): Toxic
